The source of these data is ChEMBL document CHEMBL5034039, “Discovery of Novel, Orally Bioavailable Pyrimidine Ether-Based Inhibitors of ELOVL1” (J Med Chem, 2021).

Structures are written as SMILES. Where only a bound is given, the exact number is not on record here.

A short description of series [1]: Intrinsic clearance in rat hepatocytes assessed per million cells. It counts as ADME, cell-based, Hepatocyte. Conditions: read-out: CLH.
Series [2] can be described thus: Lipophilicity, logD of the compound at pH 7.4. It counts as physicochemical. Conditions: buffer.
Series [3] deals with T1, Very long chain fatty acid elongase 1 (Homo sapiens, UniProt Q9BW60).
T1 sequence (Q9BW60 whole entry): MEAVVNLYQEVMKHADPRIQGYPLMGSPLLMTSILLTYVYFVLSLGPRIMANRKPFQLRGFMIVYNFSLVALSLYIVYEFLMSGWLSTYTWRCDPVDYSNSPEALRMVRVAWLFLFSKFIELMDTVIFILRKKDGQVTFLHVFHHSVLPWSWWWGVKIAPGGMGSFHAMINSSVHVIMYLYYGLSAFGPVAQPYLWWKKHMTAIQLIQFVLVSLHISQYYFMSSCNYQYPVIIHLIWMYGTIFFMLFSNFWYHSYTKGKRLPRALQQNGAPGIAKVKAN
Put plainly: Inhibition of ELOVL1 in HEK293 cells assessed as reduction of C26:0 lipo phosphatidyl choline synthesis. The class given is cell-based.

For series [4], the target named is T1, Very long chain fatty acid elongase 1. Put plainly: Inhibition of ELOVL1 (unknown origin).
Series [5] is described as follows: Reduction in C26:0/C16:0 LPC level in ABCD1 knock out mouse CNS at 10 mg/kg, po qd and measured after 8 months relative to control. More on the design: scale not given: the % may be the effect or the level left. The class given is functional. Conditions: 5840 h.
Series [6] is described as follows: Reduction in C26:0/C16:0 LPC level in ABCD1 knock out mouse CNS at 10 mg/kg, po qd and measured after 3 months relative to control. The class given is functional. More on the design: scale not given: the % may be the effect or the level left. Conditions: 2190 h.

For the compound `Cc1ccnn1CCCOc1cc(N2CCOC(c3ccnn3C)C2)ncn1` (stereo unspecified), the hepatocyte CLint in series [1] is 23 µL/min/1e6 cells. In series [2], the pH-dependent lipophilicity (logD) was found to be 2.1. For the same compound, in series [3], the IC50 worked out at 0.14 µM.
For `Fc1ccc(CCOc2ccc(-c3cccnc3)cn2)cc1`, the results for the IC50 in series [4] and in series [3] were 21 µM and 6.7 µM, respectively.
Regarding `Cc1ccnn1CCOc1cc(N2CCCCC2)ncn1`, the hepatocyte CLint in series [1] turned out to be 366 µL/min/1e6 cells. The compound further gave a pH-dependent lipophilicity (logD) in series [2] of 2.8. Besides, in series [3], the IC50 is 0.14 µM.
`Clc1ccn([C@H]2C[C@H](c3cc(O[C@H]4C[C@@H](n5cccn5)C4)ncn3)C2)n1`: the hepatocyte CLint in series [1] was 12 µL/min/1e6 cells. Also, the logD in series [2] was determined as 3.5. Besides, the IC50 in series [3] was found to be 0.002 µM.
For `c1cnn([C@H]2C[C@@H](Oc3cc([C@H]4C[C@H](n5cccn5)C4)ncn3)C2)c1`, the hepatocyte CLint in series [1] amounted to 5.6 µL/min/1e6 cells. Further, the pH-dependent lipophilicity (logD) in series [2] is 2.6. Besides, the half-maximal inhibitory concentration (IC50) in series [3] worked out at 0.01 µM.
Take `Fc1ccc(CCOc2cc(N3CCCCC3)ncn2)cc1`: the hepatocyte CLint in series [1] worked out at 139 µL/min/1e6 cells. For the same compound, the IC50 turned out to be 0.22 µM in series [4] and 0.08 µM in series [3].
For the compound `Cc1ccnn1CCCOc1cc(N2C3COCC2C3)ncn1`, in series [1], the hepatocyte CLint is 40 µL/min/1e6 cells. Besides, in series [2], the pH-dependent lipophilicity (logD) came to 1.3. Moreover, the 50% inhibitory concentration (IC50) in series [3] was found to be 0.23 µM.
For the compound `Fc1ccc(CCOc2cc(-c3cccnc3)ccn2)cc1`, the IC50 in series [4] was above 20 µM.
For `Fc1ccc(CCOc2cc(N3CCCCCC3)ncn2)cc1`, the hepatocyte CLint in series [1] is 273 µL/min/1e6 cells. Further, the logD in series [2] is 5.3. Besides, in series [3], the half-inhibitory concentration (IC50) came to 0.23 µM.
With `Fc1ccc(CCOc2cc(N3CCOCC3)ncn2)cc1`, the hepatocyte CLint in series [1] came out at 137 µL/min/1e6 cells. Moreover, the logD in series [2] was 3.3. Further, in series [3], the IC50 turned out to be 0.012 µM.
In the case of `CN(c1cc(OCCc2ccc(F)cc2)ncn1)C1CCOC1` (stereo unspecified), in series [1], the hepatocyte CLint stood at 327 µL/min/1e6 cells. The logD in series [2] came to 3.6. Besides, the IC50 in series [3] came to 0.06 µM.
In the case of `Fc1ccn([C@H]2C[C@H](c3cc(O[C@H]4C[C@@H](n5cccn5)C4)ncn3)C2)n1`, the hepatocyte CLint in series [1] was 8.4 µL/min/1e6 cells. The logD in series [2] amounted to 3.1. For the same compound, in series [3], the concentration for half-maximal inhibition (IC50) was 0.0003 µM.
For the compound `Cc1ccnn1CCCOc1cc(N2CCCCC2)ncn1`, in series [1], the hepatocyte CLint stood at 184 µL/min/1e6 cells. Besides, the logD in series [2] was found to be 3.2. For the same compound, the IC50 in series [3] came to 0.007 µM.
Take `Cc1ccnn1CCCOc1cc(N2CCOC(C(F)(F)F)C2)ncn1` (stereo unspecified): the hepatocyte CLint in series [1] was found to be 194 µL/min/1e6 cells. Moreover, in series [2], the pH-dependent lipophilicity (logD) worked out at 2.9. In series [3], the IC50 was found to be 0.007 µM.
On to `O=C(Nc1ccn(-c2ccnc(F)c2)n1)C1(c2ccccc2F)CC1`, for which the Activity in series [5] was 65%; in series [6] it was 34%.
Turning to `Cc1ccnn1CCCOc1cc(N2CCOC3(COC3)C2)ncn1`, the hepatocyte CLint in series [1] came to 13 µL/min/1e6 cells. For the same compound, the log distribution coefficient (logD) in series [2] is 1.6. For the same compound, the concentration for half-maximal inhibition (IC50) in series [3] stood at 0.12 µM.
On to `c1cnn([C@H]2C[C@@H](Oc3cc([C@H]4C[C@@H](n5cccn5)C4)ncn3)C2)c1`, for which the hepatocyte CLint in series [1] was 12 µL/min/1e6 cells. This compound showed a logD in series [2] of 2.6. In addition, the half-inhibitory concentration (IC50) in series [3] stood at 0.21 µM.
Consider `Fc1ccc(CCOc2cc(N3CCCCC3)ccn2)cc1`, for which the values for the IC50 in series [4] and in series [3] were 0.86 µM and 0.44 µM, respectively.
For the compound `Fc1ccc(CCOc2cc(N3CCCC3)ncn2)cc1`, in series [1], the hepatocyte CLint is 273 µL/min/1e6 cells. The same compound showed a log distribution coefficient (logD) in series [2] of 3.9. Moreover, in series [3], the IC50 is 0.43 µM.
`c1ccc([C@H]2CN(c3cc(O[C@H]4C[C@@H](n5ccnn5)C4)ncn3)CCO2)cc1`: the hepatocyte CLint in series [1] is 14 µL/min/1e6 cells. This compound returned a logD in series [2] of 2.9. Besides, the IC50 in series [3] was determined as 0.009 µM.
Turning to `Fc1cnn([C@H]2C[C@H](c3cc(O[C@H]4C[C@@H](n5cccn5)C4)ncn3)C2)c1`, the hepatocyte CLint in series [1] amounted to 9.2 µL/min/1e6 cells. This compound also gave a pH-dependent lipophilicity (logD) in series [2] of 3.1. The IC50 in series [3] worked out at 0.0006 µM.
On to `Fc1ccc(CCOc2cc(N3CCCOCC3)ncn2)cc1`, for which the hepatocyte CLint in series [1] was found to be 144 µL/min/1e6 cells. The same compound had a pH-dependent lipophilicity (logD) in series [2] of 3.4. Further, the concentration for half-maximal inhibition (IC50) in series [3] was determined as 0.003 µM.
`CN(C)c1cc(OCCc2ccc(F)cc2)ncn1`: the hepatocyte CLint in series [1] came to 539 µL/min/1e6 cells. Further, the pH-dependent lipophilicity (logD) in series [2] was 3.6. Moreover, in series [3], the IC50 amounted to 0.06 µM.
In the case of `Cc1ccnn1CCCOc1cc(N2CCOC(c3ccccc3)C2)ncn1` (stereo unspecified), in series [1], the hepatocyte CLint is 111 µL/min/1e6 cells. Also, the logD in series [2] came out at 3.8. Moreover, the IC50 in series [3] amounted to 0.007 µM.
For `c1ccc([C@H]2CN(c3cc(O[C@H]4C[C@@H](c5ncco5)C4)ncn3)CCO2)cc1`, the hepatocyte CLint in series [1] worked out at 17 µL/min/1e6 cells. In series [2], this compound returned a logD of 3.9. Further, in series [3], the 50% inhibitory concentration (IC50) came to 0.005 µM.
As to `c1ccc([C@H]2CN(c3cc(O[C@H]4C[C@@H](c5nnco5)C4)ncn3)CCO2)cc1`, in series [1], the hepatocyte CLint came out at 8 µL/min/1e6 cells. The same compound gave a logD in series [2] of 2.8. Also, the IC50 in series [3] is 0.009 µM.
For the compound `c1ccc([C@H]2CN(c3cc(O[C@H]4C[C@@H](c5ccccc5)C4)ncn3)CCO2)cc1`, the hepatocyte CLint in series [1] came out at 11 µL/min/1e6 cells. The logD in series [2] came to 5.7. Moreover, the IC50 in series [3] came out at 0.015 µM.

For orientation: logD means lipophilicity at a set pH, counting ionised and neutral species. A word on the IC50: it is the concentration that inhibits the measured activity by half.
